Data as given in patent EP4603105A1, “PHARMACEUTICAL COMPOSITION CONTAINING CYCLIC COMPOUND HAVING SELECTIVE KRAS INHIBITORY EFFECT AGAINST HRAS AND NRAS” (CHUGAI SEIYAKU KABUSHIKI KAISHA, priority 2022, dated 2024).
Read-outs that look alike come from different tables or passages of the source.

Experiments:
[1] = biological target: GDP-bound KRAS wild-type protein (Homo sapiens, UniProt P01116); assay: Binding to KRAS by surface plasmon resonance (SPR), dissociation constant KD
How it was run: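 Recombinant RAS proteins bearing a biotinylated Avi tag and loaded with GDP served as the captured ligand, recaptured fresh every cycle. Binding responses were referenced to an uncoated surface and a buffer-only blank cycle. Dissociation constants were obtained by 1:1 model fitting at 30°C.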

[2] = biological target: GDP-bound NRAS wild-type protein (Homo sapiens, UniProt P01111); assay: Binding to NRAS by surface plasmon resonance (SPR), KD and KD ratio to KRAS
Sequence of GDP-bound NRAS wild-type protein (P01111 whole entry): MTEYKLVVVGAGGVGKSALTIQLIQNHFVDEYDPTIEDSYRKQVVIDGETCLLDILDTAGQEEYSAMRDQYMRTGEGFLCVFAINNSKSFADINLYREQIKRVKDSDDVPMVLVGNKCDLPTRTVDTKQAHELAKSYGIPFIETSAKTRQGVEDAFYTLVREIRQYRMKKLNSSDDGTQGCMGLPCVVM
How it was run: (§1)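 Each cycle, GDP-bound biotin-Avi RAS was captured (~100–300 RU), compound concentrations were injected low to high for 75 s each at 100 µL/min, then the chip was regenerated. Buffer: HBS pH 7.4, 10 mM MgCl2, 10 µM GDP, 1 mM DTT, 4% DMSO; 30°C. KD from a 1:1 binding model.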

HRAS wild-type protein = HRAS wild-type protein (Homo sapiens, UniProt P01112); assay: Binding to HRAS by surface plasmon resonance (SPR), KD and KD ratio to KRAS
Sequence of HRAS wild-type protein (P01112 whole entry): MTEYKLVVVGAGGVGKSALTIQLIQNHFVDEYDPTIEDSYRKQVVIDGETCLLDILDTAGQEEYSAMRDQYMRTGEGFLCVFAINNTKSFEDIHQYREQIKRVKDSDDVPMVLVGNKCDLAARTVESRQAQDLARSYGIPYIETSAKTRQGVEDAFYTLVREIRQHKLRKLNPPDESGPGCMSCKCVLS
How it was run: as §1

[3] = system: human lung cancer strain NCI-H441; assay: NCI-H441 cell proliferation inhibitory activity (CellTiter-Glo, 4 days); format: cell-based; conditions: read-out: NCl-H441 IC50
How it was run: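 Signal came from […] measured per well once the reagent was added. Beforehand, cells were cultured at 37°C and 5% carbon dioxide on a compound series serially diluted in dimethyl sulfoxide.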

[4] = ratio of KD for GDP-bound NRAS wild-type protein to KD for KRAS
[5] = ratio of KD for HRAS wild-type protein to KD for KRAS
[6] = Single Cycle Kinetics, 1:1 binding model
[7] = ratio of KD with respect to GDP-bound NRAS wild-type protein to KD with respect to KRAS
[8] = ratio of KD with respect to HRAS wild-type protein to KD with respect to KRAS
[9] = 50% proliferation inhibitory concentration, four days

Sequence of GDP-bound KRAS wild-type protein (P01116 1-188 isoform P01116-2): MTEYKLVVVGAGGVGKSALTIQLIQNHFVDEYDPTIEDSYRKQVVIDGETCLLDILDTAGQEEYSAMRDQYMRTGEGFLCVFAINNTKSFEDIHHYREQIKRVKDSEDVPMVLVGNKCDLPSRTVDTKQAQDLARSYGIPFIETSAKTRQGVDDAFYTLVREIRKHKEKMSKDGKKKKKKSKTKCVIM

Row | SMILES | Kd ([1]; Single Cycle Kinetics) [nM] | IC50 ([3]; NCI-H441 cells, 4 days) [nM] | Kd ([1]; 1:1 binding model) [nM] | Kd [1, 6] [nM] | IC50 [3, 9] [nM] | NRAS /KRAS [2, 4] | HRAS /KRAS (HRAS wild-type protein; [5]) | NRAS /KRAS [2, 7] | HRAS /KRAS (HRAS wild-type protein; [8])
1 | CCO[C@@H]1C[C@H]2C(=O)NC3(CC(C)(C)C3)C(=O)N(C)[C@@H](C3CCCC3)C(=O)N(C)[C@H](C(=O)N(C)C)CC(=O)N(C)[C@@H](COC)C(=O)N[C@@H]([C@@H](C)CC)C(=O)N(C)CC(=O)N(C)[C@H]3C/C=C\CCN(C3=O)[C@@H](Cc3ccc(C)cc3)C(=O)N(C)CC(=O)N[C@@H](CCc3ccc(C(F)(F)F)c(Cl)c3)C(=O)N2C1 [PP2389] |  | 21.3 | 0.079 |  |  | A (a compound having 10 or more and less than 20 is denoted as A) | B (a compound having 3 or more and less than 10 is denoted as B) |  | 
2 | CCOC[C@H]1C(=O)N[C@@H]([C@@H](C)CC)C(=O)N(C)CC(=O)N(C)[C@H]2C/C=C\CCN(C2=O)[C@@H](Cc2ccc(C(F)(F)F)cc2)C(=O)N(C)CC(=O)N[C@@H](CCc2ccc(Cl)c(Cl)c2)C(=O)N2C[C@H](OCC)C[C@H]2C(=O)NC2(CC(C)(C)C2)C(=O)N(C)[C@@H](CC(C)(C)C)C(=O)N(C)[C@H](C(=O)N(C)C)CC(=O)N1C [PP2740] |  | 24.2 | 0.17 |  |  | AA (a compound having 20 or more is denoted as AA) | A (a compound having 10 or more and less than 20 is denoted as A) |  | 
3 | CCO[C@@H]1C[C@H]2C(=O)NC3(CCC3)C(=O)N(C)[C@@H](C3CCCC3)C(=O)N(C)[C@H](C(=O)N(C)C)CC(=O)N(C)[C@@H](CC(C)C)C(=O)N[C@@H]([C@@H](C)CC)C(=O)N(C)CC(=O)N(C)[C@H]3C/C=C\CCN(C3=O)[C@@H](Cc3ccc(F)cc3C)C(=O)N(C)CC(=O)N[C@@H](CCc3ccc(Cl)c(Cl)c3)C(=O)N2C1 [PP1480] |  |  |  | 0.92 | 85.8 |  |  | A (a compound having 10 or more and less than 20 is denoted as A) | B (a compound having 3 or more and less than 10 is denoted as B)
4 | CCC(CC)[C@H]1C(=O)N(C)[C@H](C(=O)N(C)C)CC(=O)N(C)[C@@H](COC)C(=O)N[C@@H]([C@@H](C)CC)C(=O)N(C2CC2)CC(=O)N(C)[C@H]2C/C=C\CCN(C2=O)[C@@H](CC2CCC(F)(F)CC2)C(=O)N(C)CC(=O)N[C@@H](CCc2cc(F)c(C(F)(F)F)c(F)c2)C(=O)N2C[C@H](OC3CCC3)C[C@H]2C(=O)NC2(CC(C)(C)C2)C(=O)N1C [PP2615] |  | 88.7 | 2 |  |  | A (a compound having 10 or more and less than 20 is denoted as A) | A (a compound having 10 or more and less than 20 is denoted as A) |  | 
5 | CCC[C@H]1C(=O)N[C@@H]([C@@H](C)CC)C(=O)N(C)CC(=O)N(C)[C@H]2C/C=C\CCN(C2=O)[C@@H](Cc2ccc(C(F)F)cc2)C(=O)N(C)CC(=O)N[C@@H](CCc2ccc(Cl)c(Cl)c2)C(=O)N2C[C@H](OC(C)C)C[C@H]2C(=O)NC2(CC(C)(C)C2)C(=O)N(C)[C@@H](C(CC)CC)C(=O)N(C)[C@H](C(=O)N(C)C)CC(=O)N1C [PP2535] |  | 26.8 | 0.54 |  |  | AA (a compound having 20 or more is denoted as AA) | A (a compound having 10 or more and less than 20 is denoted as A) |  | 
6 | CCC[C@H]1C(=O)N[C@@H]([C@@H](C)CC)C(=O)N(C)CC(=O)N(C)[C@H]2C/C=C\CCN(C2=O)[C@@H](CC2CCCCC2)C(=O)N(C)CC(=O)N[C@@H](CCc2ccc(C(F)(F)F)c(OC)c2)C(=O)N2C[C@@H](C)C[C@H]2C(=O)N(C)C2(CCC2)C(=O)N(C)[C@@H](C2CCCC2)C(=O)N(C)[C@H](C(=O)N(C)C)CC(=O)N1C [PP2370] |  | 25.7 | 0.54 |  |  | B (a compound having 3 or more and less than 10 is denoted as B) | B (a compound having 3 or more and less than 10 is denoted as B) |  | 
7 | CC[C@H](C)[C@@H]1NC(=O)[C@H](COC)N(C)C(=O)C[C@@H](C(=O)N(C)C)N(C)C(=O)[C@H](C2CCCC2)N(C)C(=O)C2(CC(C)(C)C2)NC(=O)[C@@H]2C[C@@H](OC3CCC3)CN2C(=O)[C@H](CCc2cc(F)c(C(F)(F)F)c(F)c2)NC(=O)CN(C)C(=O)[C@H](CC2CCC(F)(F)CC2)N2CC/C=C\C[C@@H](C2=O)N(C)C(=O)CN(C2CC2)C1=O [PP2622] |  | 43.8 | 0.53 |  |  | A (a compound having 10 or more and less than 20 is denoted as A) | B (a compound having 3 or more and less than 10 is denoted as B) |  | 

Further lines, with some results ahead:

Row | Kd ([1]; Single Cycle Kinetics) [nM] | IC50 ([3]; NCI-H441 cells, 4 days) [nM] | Kd ([1]; 1:1 binding model) [nM] | Kd [1, 6] [nM] | IC50 [3, 9] [nM] | SMILES | NRAS /KRAS [2, 4] | HRAS /KRAS (HRAS wild-type protein; [5]) | NRAS /KRAS [2, 7] | HRAS /KRAS (HRAS wild-type protein; [8])
8 | 0.15 | 12.1 |  |  |  | CCCO[C@@H]1C[C@H]2C(=O)NC3(CC(C)(C)C3)C(=O)N(C)[C@@H](C3CCCC3)C(=O)N(C)[C@H](C(=O)N(C)CC)CC(=O)N(C)[C@@H](COCC)C(=O)N[C@@H]([C@@H](C)CC)C(=O)N(C)CC(=O)N(C)[C@H]3C/C=C\CCN(C3=O)[C@@H](Cc3ccc(C)cc3)C(=O)N(C)CC(=O)N[C@@H](CCc3cc(F)c(C(F)(F)F)c(F)c3)C(=O)N2C1 [PP3419] | A (a compound having 10 or more and less than 20 is denoted as A) | A (a compound having 10 or more and less than 20 is denoted as A) |  | 
9 |  |  |  | 0.13 | 12.8 | CCO[C@@H]1C[C@H]2C(=O)NC3(CCC3)C(=O)N(C)[C@@H](C3CCCC3)C(=O)N(C)[C@H](C(=O)N3CCOCC3)CC(=O)N(C)[C@@H](CC)C(=O)N[C@@H]([C@@H](C)CC)C(=O)N3CC[C@H]3C(=O)N(C)[C@H]3C[C@@H](C)[C@@H](C)CN(C3=O)[C@@H](Cc3ccc(C(F)(F)F)cc3)C(=O)N(C)CC(=O)N[C@@H](CCc3cc(F)c(C(F)(F)F)c(F)c3)C(=O)N2C1 [PP1351] |  |  | A (a compound having 10 or more and less than 20 is denoted as A) | B (a compound having 3 or more and less than 10 is denoted as B)
10 |  |  |  | 0.2 | 38.6 | CCO[C@@H]1C[C@H]2C(=O)NC3(CCCC3)C(=O)N(C)[C@@H](C3CCCC3)C(=O)N(C)[C@H](C(=O)N(C)C)CC(=O)N(C)[C@@H](CC(C)C)C(=O)N[C@@H]([C@@H](C)CC)C(=O)N(C)CC(=O)N(C)[C@H]3C/C=C\CCN(C3=O)[C@@H](CC3CCC(F)(F)CC3)C(=O)N(C)CC(=O)N[C@@H](CCc3cc(F)c(C(F)(F)F)c(F)c3)C(=O)N2C1 [PP1459] |  |  | A (a compound having 10 or more and less than 20 is denoted as A) | A (a compound having 10 or more and less than 20 is denoted as A)
11 |  |  |  | 0.15 | 73.1 | CCO[C@@H]1C[C@H]2C(=O)NC3(CCC3)C(=O)N(C)[C@@H](C3CCCC3)C(=O)N(C)[C@H](C(=O)N(C)C)CC(=O)N(C)[C@@H](Cc3ccccc3C#N)C(=O)N[C@@H]([C@@H](C)CC)C(=O)N(C)CC(=O)N(C)[C@H]3CCCCCN(C3=O)[C@@H](Cc3ccc(F)cc3)C(=O)N(C)CC(=O)N[C@@H](CCc3cc(F)c(C(F)(F)F)c(F)c3)C(=O)N2C1 [PP1155] |  |  | B (a compound having 3 or more and less than 10 is denoted as B) | B (a compound having 3 or more and less than 10 is denoted as B)
12 |  |  |  | 0.32 | 74 | CCO[C@@H]1C[C@H]2C(=O)NC3(CCC3)C(=O)N(C)[C@@H](C3CCCC3)C(=O)N(C)[C@H](C(=O)N(C)C)CC(=O)N(C)[C@@H](Cc3cccs3)C(=O)N[C@@H]([C@@H](C)CC)C(=O)N(C)CC(=O)N(C)[C@H]3CCCCCN(C3=O)[C@@H](Cc3ccc(C(F)(F)F)cc3)C(=O)N(C)CC(=O)N[C@@H](CCc3cc(F)c(C(F)(F)F)c(F)c3)C(=O)N2C1 [PP1169] |  |  | B (a compound having 3 or more and less than 10 is denoted as B) | B (a compound having 3 or more and less than 10 is denoted as B)
13 |  | 39.3 | 0.85 |  |  | CCC[C@H]1C(=O)N[C@@H]([C@@H](C)CC)C(=O)N(C)CC(=O)N(C)[C@H]2C/C=C\CCN(C2=O)[C@@H](Cc2ccc(C)cc2)C(=O)N(C)CC(=O)N[C@@H](CCc2cc(F)c(C(F)(F)F)c(F)c2)C(=O)N2C[C@H](OCC)C[C@H]2C(=O)NC2(CC(C)(C)C2)C(=O)N(C)[C@@H](CC2CCC2)C(=O)N(C)[C@H](C(=O)N(C)C)CC(=O)N1C [PP2751] | A (a compound having 10 or more and less than 20 is denoted as A) | A (a compound having 10 or more and less than 20 is denoted as A) |  | 
14 |  |  |  | 0.13 | 44.5 | CCO[C@@H]1C[C@H]2C(=O)NC3(CCC3)C(=O)N(C)[C@@H](C3CCCC3)C(=O)N(C)[C@H](C(=O)N(C)C)CC(=O)N(C)[C@@H](CSC)C(=O)N[C@@H]([C@@H](C)CC)C(=O)N(C)CC(=O)N(C)[C@H]3C/C=C\CCN(C3=O)[C@@H](CC3CCCCC3)C(=O)N(C)CC(=O)N[C@@H](CCc3cc(F)c(C(F)(F)F)c(F)c3)C(=O)N2C1 [PP1463] |  |  | A (a compound having 10 or more and less than 20 is denoted as A) | A (a compound having 10 or more and less than 20 is denoted as A)
15 | 0.73 | 23.8 |  |  |  | CCCO[C@@H]1C[C@H]2C(=O)NC3(CC(C)(C)C3)C(=O)N(C)[C@@H](C3CCCC3)C(=O)N(C)[C@H](C(=O)N(C)CC)CC(=O)N(C)[C@@H](COCC)C(=O)N[C@@H]([C@@H](C)CC)C(=O)N3CCC[C@H]3C(=O)N(C)[C@H]3C/C=C\CCN(C3=O)[C@@H](Cc3ccc(C(F)(F)F)cc3)C(=O)N(C)CC(=O)N[C@@H](CCc3ccc(C(F)(F)F)c(OC)c3)C(=O)N2C1 [PP3413] | AA (a compound having 20 or more is denoted as AA) | A (a compound having 10 or more and less than 20 is denoted as A) |  | 
